Assay results from paper PMC3917281, “Identification and Biochemical Characterization of Halisulfate 3 and Suvanine as Novel Inhibitors of Hepatitis C Virus NS3 Helicase from a Marine Sponge” (Marine Drugs, 2014).

Key:
[1] = target: T1, HCV NS3 helicase (Hepatitis C virus genotype 1a, UniProt P27958); assay: Gel-based HCV NS3 helicase assay; type: biochemical; details: 0–100 µM inhibitor
T1 construct: The full-length HCV NS3 protein with serine protease and NTPase/helicase activities was expressed and purified as described previously; made in house
T1 sequence (P27958 1027-1657): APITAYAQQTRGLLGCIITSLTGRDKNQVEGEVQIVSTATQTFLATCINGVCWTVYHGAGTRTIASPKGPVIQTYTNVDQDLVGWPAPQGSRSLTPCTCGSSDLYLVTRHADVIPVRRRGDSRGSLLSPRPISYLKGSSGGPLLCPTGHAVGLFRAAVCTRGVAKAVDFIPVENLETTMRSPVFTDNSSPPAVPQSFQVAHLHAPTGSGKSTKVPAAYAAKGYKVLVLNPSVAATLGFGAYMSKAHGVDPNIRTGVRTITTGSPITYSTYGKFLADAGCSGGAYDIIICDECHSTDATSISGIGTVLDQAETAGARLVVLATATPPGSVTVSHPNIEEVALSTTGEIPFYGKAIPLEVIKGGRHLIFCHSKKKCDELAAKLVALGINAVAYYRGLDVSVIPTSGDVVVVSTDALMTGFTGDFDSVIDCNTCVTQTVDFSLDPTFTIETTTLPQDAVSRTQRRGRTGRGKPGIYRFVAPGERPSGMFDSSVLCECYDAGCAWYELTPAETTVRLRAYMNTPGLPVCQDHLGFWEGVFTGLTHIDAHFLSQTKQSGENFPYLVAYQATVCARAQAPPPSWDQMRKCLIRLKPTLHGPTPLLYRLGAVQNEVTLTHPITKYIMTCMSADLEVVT
Description: A gel-based helicase assay was performed on HCV NS3 helicases using an Alexa Fluor 488-labeled dsRNA strand and capture strand with the same nucleic acid sequences described in Section 3.2. The dsRNA substrate was prepared by annealing the 5′ Alexa Fluor 488-labeled strand (5′-[…]-3′) to the complementary strand (5′-[…]-3′) at a 1:2 molar ratio. The same capture strand described in Section 3.2 was used. All nucleic acid strands were purchased from Japan Bio Services (Saitama, Japan). The reaction mixture for HCV NS3 helicase contained the same components as described in Section 3.2, with increasing concentrations of hal3 or suvanine in a reaction volume of 20 µL. The reaction was started by the addition of HCV NS3 helicase, and performed at 37 °C for 60 min using a GeneAmp PCR System 2700 (Applied Biosystems, Foster City, CA, USA). […] The helicase activity was calculated as the ratio of the signal intensity derived from ssRNA in the sample containing inhibitor to that in the control sample containing DMSO vehicle instead of inhibitor.

[2] = target: T1, HCV NS3 helicase; assay: PET-based fluorescence helicase assay; type: biochemical
Description: The PET-based fluorescence helicase assay was performed as described previously. The dsRNA substrate was prepared by annealing the 5′ BODIPY FL-labeled fluorescence strand (5′-[…]-3′) to the quencher strand (5′-[…]-3′) at a 1:2 molar ratio. The dsRNA substrate contains the 3′-overhang that is necessary for the NS3 helicase to bind RNA prior to duplex unwinding. The capture strand (5′-[…]-3′), which is complementary to the quencher strand, prevents the unwound duplexes from reannealing. None of the capture, quencher, or fluorescence strands are self-complementary. The fluorescence strand was purchased from J-Bio 21 Corporation (Tokyo, Japan), and was labeled with BODIPY FL at the 5′-end via an aminohexylphosphate linker with a six-carbon spacer. […]
The reaction was started by the addition of HCV NS3 helicase, and was performed at 37 °C for 30 min using a LightCycler 1.5 (Roche Diagnostics, Basel, Switzerland). The fluorescence intensity was recorded every 5 s from 0 to 5 min, and then every 30 s from 5 to 30 min. Helicase activity was calculated as the initial reaction velocity relative to control (in the absence of a marine extract, but presence of DMSO vehicle). The IC50 was calculated using KaleidaGraph (Synergy Software, Reading, PA, USA) by fitting plots of % activity vs. [I] using Equation (1) unless otherwise noted: [drawing 1] […]

[3] = target: T2, HCV NS3/4A protease (Hepatitis C virus genotype 1a, UniProt P27958); assay: Fluorescence NS3 serine protease assay (FRET); type: biochemical
T2 construct: NS3 protein with a two-fold excess of the NS4A cofactor peptide Pep4AK was prepared in 1× assay buffer; made in house
T2 sequence (P27958 1027-1657): as above
Description: A fluorescence NS3 serine protease assay, based on fluorescence resonance energy transfer, was conducted using reagents provided in a SensoLyte™ 520 HCV protease assay kit (AnaSpec, San Jose, CA, USA), as described previously. Briefly, NS3 protein with a two-fold excess of the NS4A cofactor peptide Pep4AK was prepared in 1× assay buffer provided with the kit. HCV NS3/4A protease was mixed with increasing concentrations of inhibitor, and incubated at 37 °C for 15 min. The reaction was started by the addition of 5-FAM/QXL 520 substrate in a 20 µL total reaction volume containing 240 nM HCV NS3/4A protease and increasing concentrations of hal3 or suvanine. Reactions were then incubated at 37 °C for 120 min on a LightCycler 1.5 (Roche Diagnostics, Basel, Switzerland), and the fluorescence intensity was recorded every min for 120 min. NS3 serine protease activity was calculated as the initial reaction velocity in the sample containing inhibitor relative to the control sample containing DMSO vehicle rather than inhibitor.

[4] = target: T3, NS3 RNA binding activity (Hepatitis C virus genotype 1a, UniProt P27958); assay: RNA binding assay (gel mobility shift); details: 32P-labeled ssRNA, 0–100 µM inhibitor
T3 construct: The full-length HCV NS3 protein with serine protease and NTPase/helicase activities was expressed and purified as described previously; made in house
T3 sequence (P27958 1027-1657): as above
Description: NS3 RNA binding activity was determined by gel mobility shift assay, as described previously. The ssRNA (5′-[…]-3′) synthesized by Gene Design (Osaka, Japan) was labeled at the 5′-end with [γ-^32P] ATP (Muromachi Yakuhin, Tokyo, Japan) using T4 polynucleotide kinase (Toyobo, Osaka, Japan) at 37 °C for 60 min, and purified using the phenol-chloroform extraction method. The reaction mixture contained 30 mM Tris-HCl (pH 7.5), 100 mM NaCl, 2 mM MgCl2, 1 mM dithiothreitol, 20 U RNasin Plus (Promega), 300 nM NS3, 0.1 nM ^32P-labeled ssRNA, and increasing concentrations of inhibitor in a volume of 20 µL. The reaction was performed at room temperature for 15 min. An equal volume of a dye solution containing 0.025% bromophenol blue and 10% glycerol in 0.5× TBE was then added to each reaction mixture, and samples were loaded onto a 6% native-polyacrylamide gel. The labeled RNA bands were visualized using an Image Reader FLA-9000 and quantified using Multi Gauge software V 3.11 (Fujifilm, Tokyo, Japan). RNA binding activity was calculated as the ratio of the signal intensity derived from the NS3-ssRNA complex in the sample containing hal3 or suvanine to that in the control sample containing DMSO vehicle rather than inhibitor.

[5] = target: T4, NS3 ATPase activity (Hepatitis C virus genotype 1a, UniProt P27958); assay: ATPase assay ([γ-32P] ATP hydrolysis, thin-layer chromatography); type: biochemical; details: poly(U) RNA, 0–100 µM inhibitor
T4 construct: The full-length HCV NS3 protein with serine protease and NTPase/helicase activities was expressed and purified as described previously; made in house
T4 sequence (P27958 1027-1657): as above
Description: NS3 ATPase activity was determined directly by monitoring [γ-^32P] ATP hydrolysis by thin-layer chromatography, as described previously. The reaction mixture contained 25 mM MOPS-NaOH (pH 7.0), 1 mM dithiothreitol, 5 mM MgCl2, 5 mM CaCl2, 1 mM [γ-^32P] ATP (Muromachi Yakuhin, Tokyo, Japan), 300 nM NS3, 0.1 µg/µL poly (U) ssRNA (Sigma-Aldrich, St. Louis, MO, USA), and increasing concentrations of hal3 or suvanine in a volume of 10 µL. The reaction was conducted at 37 °C for 10 min, and stopped by the addition of 10 mM EDTA. Two microliters of each reaction mixture was then spotted onto a polyethyleneimine cellulose sheet (Merck, Darmstadt, Germany) and developed in 0.75 M LiCl/1 M formic acid solution for 20 min. The cellulose sheet was dried, and the released [γ-^32P] phosphoric acid was visualized using an Image Reader FLA-9000 and quantified using Multi Gauge software V 3.11 (Fujifilm, Tokyo, Japan). ATPase activity was calculated as the ratio of the signal intensity derived from the released Pi in the sample containing inhibitor to that in the control sample containing DMSO vehicle instead of inhibitor.

[6] = target: T5, DENV NS3 helicase (Dengue virus type 2, UniProt P29990); assay: Gel-based DENV NS3 helicase assay; type: biochemical; details: in the presence of 100 µM of each inhibitor
T5 construct: made in house
T5 sequence (P29990 1476-2093): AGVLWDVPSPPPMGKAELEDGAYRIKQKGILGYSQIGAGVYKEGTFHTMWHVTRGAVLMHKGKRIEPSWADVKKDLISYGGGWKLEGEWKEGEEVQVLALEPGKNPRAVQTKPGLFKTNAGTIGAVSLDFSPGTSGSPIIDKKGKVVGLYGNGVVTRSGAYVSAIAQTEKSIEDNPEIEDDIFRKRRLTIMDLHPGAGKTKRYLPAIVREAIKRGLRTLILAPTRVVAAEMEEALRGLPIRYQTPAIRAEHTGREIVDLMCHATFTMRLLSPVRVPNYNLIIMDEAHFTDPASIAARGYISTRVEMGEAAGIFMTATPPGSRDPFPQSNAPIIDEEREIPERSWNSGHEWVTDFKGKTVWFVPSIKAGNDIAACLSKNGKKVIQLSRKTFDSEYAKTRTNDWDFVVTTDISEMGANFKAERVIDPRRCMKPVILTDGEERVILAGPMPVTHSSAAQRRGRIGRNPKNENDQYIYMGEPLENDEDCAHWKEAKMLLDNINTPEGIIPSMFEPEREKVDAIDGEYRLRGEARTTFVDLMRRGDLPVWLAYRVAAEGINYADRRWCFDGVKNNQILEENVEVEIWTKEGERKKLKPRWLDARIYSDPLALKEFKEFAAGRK
Description: A gel-based helicase assay was performed using DENV NS3 helicases, and the Alexa Fluor 488-labeled dsRNA strand and capture strand with the same nucleic acid sequences described in the Section 3.3. DENV NS3 helicase requires a single stranded 3′ overhang to unwind dsRNA substrates in the 3′ to 5′ direction; therefore, the substrate specificities of the DENV and HCV NS3 helicases are the same. The reaction mixture contained 50 mM Tris-HCl (pH 7.4), 1 mM DTT, 0.5% Tween 20, 0.25 µg/mL BSA, 2 mM MgCl2, 4 U RNasin (Promega), 5 mM ATP, 50 nM dsRNA substrate, 300 nM capture strand, an inhibitor, and 240 nM DENV NS3 in a total volume of 20 µL. DENV NS3 helicase was prepared as described previously. The reaction was started by the addition of DENV NS3 helicase, and was performed at 37 °C for 60 min using a GeneAmp PCR System 2700 (Applied Biosystems, Foster City, CA, USA). […] The helicase activity was calculated as the ratio of the signal intensity from ssRNA in the sample containing inhibitor to that in the control sample containing DMSO vehicle instead of inhibitor.

[7] = system: serine protease; details: cited from earlier work
[8] = system: farnesoid-X-receptor; parameters: method as in PMID 23656455; details: mammalian bile acid sensor; cited from earlier work
[9] = system: heat shock protein 60; details: cited from earlier work

SMILES	helicase-catalyzed RNA unwinding [1]	IC50 [2] [µM]	IC50 [3] [µM]	IC50 [4] [µM]	IC50 [5] [µM]	DENV NS3 helicase activity [6]	serine protease inhibition [7]	farnesoid-X-receptor antagonism [8]	interference with heat shock protein 60 [9]
C[C@@H]1CCC2=C(CCCC2(C)C)[C@@]1(C)CC[C@H](CCCc1ccoc1)COS(=O)(=O)[O-].[Na+] [hal3, halisulfate 3]	inhibited helicase-catalyzed RNA unwinding in a dose-dependent manner	4	14	8	8	did not abolish			
CC1(C)CCC[C@]2(C)[C@H]3CC/C(=C\OS(=O)(=O)[O-])[C@H](CCc4ccoc4)[C@@]3(C)CC[C@@H]12.[Na+] [suvanine]	inhibited helicase-catalyzed RNA unwinding in a dose-dependent manner	3	34	3	7	did not abolish	serine protease inhibitor	antagonist	interferes with
